These are literature values, as cited in article PMC8954540, “A New Class of PSMA-617-Based Hybrid Molecules for Preoperative Imaging and Intraoperative Fluorescence Navigation of Prostate Cancer” (Pharmaceuticals, 2022).

The data set has as its system human serum albumin. More on the design: method as in PMID 942422, PMID 11325049. The following applies: cited from earlier work.

In the case of `CC1(C)C(/C=C/C=C/C=C/C=C2\N(CCCCS(=O)(=O)O)c3ccc4ccccc4c3C2(C)C)=[N+](CCCCS(=O)(=O)[O-])c2ccc3ccccc3c21` [indocyanine green], the “human serum albumin binding” value is “prone to human serum albumin binding”.
